One assay deals with sigma-SG2 (Rattus norvegicus, UniProt Q5U3Y7). As to the kind of experiment: Receptor binding sigma-SG2. To be noted: radioligand [3H]-DTG, read-out: Ki(nM) Compound 1. As for the experimental part: (§1) Receptor binding data were obtained by CEREP (128, rue Danton, 92500 Rueil-Malmaison, France) or at Solvay Pharmaceuticals B.V., using well documented standard procedures. Affinity for 5-HT1A receptors for instance, was determined by testing the ability of the compounds of the invention to displace [^3H]-2-(di-n-propylamino)-8-hydroxytetralin ([^3H]-8-OH-DPAT) from its specific binding sites in rat frontal cortex homogenates. This test is based on the method described by Gozlan et al. (Nature, 305, (1983), pages 140-142).
sigma-SG2, sequence (Q5U3Y7 whole entry): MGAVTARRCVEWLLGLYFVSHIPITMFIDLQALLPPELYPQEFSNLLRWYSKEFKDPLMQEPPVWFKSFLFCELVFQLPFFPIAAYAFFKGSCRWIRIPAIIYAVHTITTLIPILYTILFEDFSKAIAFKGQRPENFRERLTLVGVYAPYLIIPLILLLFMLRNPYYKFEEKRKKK
(§2) The binding data collected in the table below were either obtained by CEREP (128, rue Danton, 92500 Rueil-Malmaison, France) or at Solvay Pharmaceuticals B.V., using well documented standard procedures.

For the next assay, the target named is Muscarine-M1 (Homo sapiens, UniProt P11229). The experiment in a line: Receptor binding Muscarine-M1. To be noted: radioligand [3H]-pirenzepine, read-out: Ki(nM) Compound 1. As for the experimental part:
as §1, §2

A further assay addresses α1B-adrenergic (Rattus norvegicus, UniProt P15823). As to the kind of experiment: Receptor binding α1B-adrenergic. To be noted: radioligand [3H]-prazosin, read-out: Ki(nM) Compound 1. As for the experimental part: as §1, §2
The target of the next assay is Neurokinin-NK2 (Homo sapiens, UniProt P21452). The experiment in a line: Receptor binding Neurokinin-NK2. To be noted: radioligand [125I]-neurokininA, read-out: Ki(nM) Compound 1. As for the experimental part: as §1, §2
Neurokinin-NK2, sequence (P21452 whole entry): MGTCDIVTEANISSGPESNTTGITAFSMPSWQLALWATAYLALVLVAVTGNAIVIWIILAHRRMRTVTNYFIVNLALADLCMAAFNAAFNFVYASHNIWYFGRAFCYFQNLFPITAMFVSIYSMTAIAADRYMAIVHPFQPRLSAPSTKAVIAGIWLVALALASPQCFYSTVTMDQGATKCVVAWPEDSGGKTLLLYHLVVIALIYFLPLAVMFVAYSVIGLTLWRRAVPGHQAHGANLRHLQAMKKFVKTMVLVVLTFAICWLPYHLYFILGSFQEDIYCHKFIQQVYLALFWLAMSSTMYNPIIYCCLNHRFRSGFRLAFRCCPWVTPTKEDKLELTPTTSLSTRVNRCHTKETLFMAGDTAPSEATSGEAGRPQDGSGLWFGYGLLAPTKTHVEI
Another assay has as its target NAreuptake (Homo sapiens, UniProt P23975). The experiment in a line: Binding NA reuptake. To be noted: radioligand [3H]-nisoxetin, read-out: Ki(nM) Compound 1. As for the experimental part:
as §1, §2

The target in the next assay is Neurotensin-NT1 (Homo sapiens, UniProt P30989). As to the kind of experiment: Receptor binding Neurotensin-NT1. To be noted: radioligand [125I]-neurotensin, read-out: Ki(nM) Compound 1. As for the experimental part: as §1, §2
The target in another assay is α1A-adrenergic (Rattus norvegicus, UniProt P43140). The experiment in a line: Receptor binding α1A-adrenergic. To be noted: radioligand [3H]-prazosin, read-out: Ki(nM) Compound 1. As for the experimental part: as §1, §2
α1A-adrenergic, sequence (P43140 whole entry): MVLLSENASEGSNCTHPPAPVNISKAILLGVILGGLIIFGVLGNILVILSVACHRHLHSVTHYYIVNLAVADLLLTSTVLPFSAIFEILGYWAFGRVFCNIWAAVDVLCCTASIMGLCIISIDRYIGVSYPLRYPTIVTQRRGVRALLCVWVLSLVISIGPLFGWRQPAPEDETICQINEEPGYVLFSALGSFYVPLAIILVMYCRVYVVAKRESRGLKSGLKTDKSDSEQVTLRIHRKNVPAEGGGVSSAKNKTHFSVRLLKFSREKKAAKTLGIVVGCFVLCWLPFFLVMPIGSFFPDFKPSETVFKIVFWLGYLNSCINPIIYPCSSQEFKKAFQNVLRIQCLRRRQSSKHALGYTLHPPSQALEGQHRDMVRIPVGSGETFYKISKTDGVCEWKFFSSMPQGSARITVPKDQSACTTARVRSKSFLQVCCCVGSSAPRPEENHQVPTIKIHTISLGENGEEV
Another assay deals with Adenosine-A3 (Homo sapiens, UniProt P0DMS8). The experiment in a line: Receptor binding Adenosine-A3. To be noted: radioligand [3H]-AB-MECA, read-out: Ki(nM) Compound 1. On the procedure: as §1, §2
A further assay has as its target Interleukine-6 (Homo sapiens, UniProt P08887). The experiment in a line: Receptor binding Interleukine-6. To be noted: radioligand [125I]-interleukine-6, read-out: Ki(nM) Compound 1. As for the experimental part: as §1, §2
A further assay addresses Endothelin-ETA (Homo sapiens, UniProt P25101). The experiment in a line: Receptor binding Endothelin-ETA. To be noted: radioligand [125I]-endothelin-1, read-out: Ki(nM) Compound 1. On the procedure: as §1, §2
The next assay has as its target Vasopressine-V1A (Homo sapiens, UniProt P37288). As to the kind of experiment: Receptor binding Vasopressine-V1A. To be noted: radioligand [3H]-vasopressine, read-out: Ki(nM) Compound 1. On the procedure: as §1, §2
Assay [1] deals with rats with unilateral 6-OHDA lesions. The experiment in a line: Turning experiments in animals with unilateral 6-hydroxydopamine lesions of the substantia nigra compacta. The assay is classed as in vivo. As for the experimental part:
Male rats (Wistar, Harlan, Netherlands; 400-500 g at time of experiment) are housed in a temperature (20-21±2° C.) and humidity controlled environment and receive water ad libitum except during experimental sessions. Food is restricted to approximately 15 g per rat per day. A 12-hour light-dark cycle (lights on 07.00-19.00 hour) is used.
Unilateral 6-hydroxydopamine (6-OH DA) lesions of the substantia nigra zona compacta are performed using a stereotaxic procedure. One hour prior to surgery, desmethyl-imipramine (20 mg/kg, i.p.) is administered to protect noradrenergic neurons. Rats are anaesthetized with a 3% halothane+0.8 l/min N2O+0.8 l/min O2-gas mixture at 1013 mbar. During surgery the gas mixture is adjusted to 1.75-2% halothane, 0.6 l/min N2O and 0.6 l/min O2. The incisor bar of the stereotaxic instrument (Kopf, Calif., USA) iss set at −3.3 mm, a burr hole was drilled over the substantia nigra pars compacta and 3 μl of a 6-OHDA solution (3.33 mg/ml) is injected (flow rate=0.75 μl/min; the needle is left in place for 4 minutes prior to withdrawal). Coordinates for this procedure are: anterior posterior +3.2 mm from the interaural line; medial/lateral +1.8 mm from the midline and ventral −8.2 from the skull surface. Animals are allowed to recover for approximately 2 weeks prior to testing. Good turning rats are defined as those which elicited at least 20 contralateral turns following amphetamine (2.5 mg/kg sc) in the 5 min time epoch beginning 25 min after administration and a mean of at least 20 contralateral turns recorded over a 30 min period after administration of apomorphine (0.25 mg/kg s.c.). Regular testing with apomorphine (0.1 or 0.25 mg/kg s.c.) is carried out to ensure the reliability of the animals in this procedure.
Eight commercially available (TSE systems Bad Homburg, Germany) ‘rotameter’ units (transparent plastic bowls; 57×55×52 cm) are used for testing. The rats are harnessed and tethered to a rotation sensor interfaced to an IBM compatible personal computer (using the TSE Rotameter Software v. 1.11, TSE systems Bad Homburg, Germany) which registers clockwise or counterclockwise movement. An internal software rotation filter of 10 is used.
Following statistical randomization of the treatment groups rats are pretreated with compounds of the invention (0.1-3 mg/kg p.o.) or vehicle (2 ml/kg) and placed in the rotameters the contralateral rotational behaviour is then measured. In further studies the effects of L-DOPA (1-10 mg/kg p.o.) are assessed on contralateral rotations. The peripheral decarboxylase inhibitor benserazide (30 mg/kg i.p.) can be used. In combination studies a range of L-DOPA (1-10) doses and doses of compounds of the invention (0.1-3 mg/kg p.o.) can be combined.

For the next assay, the target named is 5-HT6 (Homo sapiens, UniProt P50406). The experiment in a line: Receptor binding 5-HT6. To be noted: radioligand [3H]-LSD, read-out: Ki(nM) Compound 1. As for the experimental part:
as §1, §2

Another assay deals with 5-HT2C (Homo sapiens, UniProt P28335). The experiment in a line: Receptor binding 5-HT2C. To be noted: radioligand [125I]-DOI, read-out: Ki(nM) Compound 1. On the procedure: as §1, §2
5-HT2C, sequence (P28335 33-458): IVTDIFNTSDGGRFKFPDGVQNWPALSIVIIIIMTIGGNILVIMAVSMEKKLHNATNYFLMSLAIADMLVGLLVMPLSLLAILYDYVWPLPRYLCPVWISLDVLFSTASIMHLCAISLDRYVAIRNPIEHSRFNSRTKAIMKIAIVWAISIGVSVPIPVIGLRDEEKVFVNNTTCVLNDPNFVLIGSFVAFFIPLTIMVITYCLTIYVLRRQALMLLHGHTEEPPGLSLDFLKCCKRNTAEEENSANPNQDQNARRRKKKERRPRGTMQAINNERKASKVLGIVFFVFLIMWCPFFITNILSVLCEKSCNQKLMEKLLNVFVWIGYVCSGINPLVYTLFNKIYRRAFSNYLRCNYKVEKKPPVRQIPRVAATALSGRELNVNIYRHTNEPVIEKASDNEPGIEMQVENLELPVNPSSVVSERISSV
The target of a further assay is κ-opiate (Rattus norvegicus, UniProt P34975). As to the kind of experiment: Receptor binding κ-opiate. To be noted: radioligand [3H]-U 69593, read-out: Ki(nM) Compound 1. On the procedure: as §1, §2
κ-opiate, sequence (P34975 whole entry): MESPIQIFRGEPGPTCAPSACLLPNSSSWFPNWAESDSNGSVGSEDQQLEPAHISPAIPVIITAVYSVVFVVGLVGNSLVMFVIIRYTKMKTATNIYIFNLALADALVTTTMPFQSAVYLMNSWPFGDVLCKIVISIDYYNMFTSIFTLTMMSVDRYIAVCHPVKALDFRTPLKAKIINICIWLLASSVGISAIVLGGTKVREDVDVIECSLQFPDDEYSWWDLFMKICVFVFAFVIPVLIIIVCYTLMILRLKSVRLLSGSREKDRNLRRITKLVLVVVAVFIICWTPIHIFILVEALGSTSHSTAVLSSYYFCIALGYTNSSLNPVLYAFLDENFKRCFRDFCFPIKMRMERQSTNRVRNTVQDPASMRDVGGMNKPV
The next assay addresses angiotensin-AT2 (Homo sapiens, UniProt P50052). The experiment in a line: Receptor binding angiotensin-AT2. To be noted: radioligand [125I]-CPG 42112A, read-out: Ki(nM) Compound 1. As for the experimental part: as §1, §2

Marks after values point to notes of the source that are not given here.

The values below come from patent US20050215551A1, “1-[2H-1-benzopyran-2-one-8-yl]- piperazine derivatives for the treatment of movement disorders” (SOLVAY PHARMACEUTICALS B.V., priority 2004, published 2005).

Usually Ki stands for a measure of affinity in units of concentration, obtained from inhibition or displacement.

α1B-adrenergic, sequence (P15823 whole entry): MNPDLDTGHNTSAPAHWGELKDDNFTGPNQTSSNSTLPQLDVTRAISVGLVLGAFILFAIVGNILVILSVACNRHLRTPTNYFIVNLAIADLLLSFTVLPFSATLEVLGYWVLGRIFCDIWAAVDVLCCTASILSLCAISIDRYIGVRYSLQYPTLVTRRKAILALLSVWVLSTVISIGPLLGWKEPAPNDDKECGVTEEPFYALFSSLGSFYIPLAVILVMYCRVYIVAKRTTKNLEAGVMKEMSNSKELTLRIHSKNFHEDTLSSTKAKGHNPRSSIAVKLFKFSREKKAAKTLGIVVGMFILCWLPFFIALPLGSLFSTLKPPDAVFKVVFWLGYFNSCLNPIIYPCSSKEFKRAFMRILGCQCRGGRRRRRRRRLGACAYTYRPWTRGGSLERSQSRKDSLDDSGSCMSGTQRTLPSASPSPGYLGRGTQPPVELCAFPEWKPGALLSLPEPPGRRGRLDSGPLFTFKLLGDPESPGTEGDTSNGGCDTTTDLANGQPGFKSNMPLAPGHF
Endothelin-ETA, sequence (P25101 21-427): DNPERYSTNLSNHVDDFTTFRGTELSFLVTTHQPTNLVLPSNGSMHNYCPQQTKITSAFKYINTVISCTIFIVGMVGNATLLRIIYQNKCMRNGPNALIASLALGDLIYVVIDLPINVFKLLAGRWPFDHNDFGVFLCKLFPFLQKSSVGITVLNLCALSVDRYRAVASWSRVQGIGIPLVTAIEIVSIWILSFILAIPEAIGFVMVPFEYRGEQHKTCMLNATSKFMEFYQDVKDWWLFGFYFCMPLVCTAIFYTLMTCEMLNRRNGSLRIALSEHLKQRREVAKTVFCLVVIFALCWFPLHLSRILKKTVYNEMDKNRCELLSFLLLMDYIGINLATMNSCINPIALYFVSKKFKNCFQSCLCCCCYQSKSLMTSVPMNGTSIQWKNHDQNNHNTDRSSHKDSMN
NAreuptake, sequence (P23975 whole entry): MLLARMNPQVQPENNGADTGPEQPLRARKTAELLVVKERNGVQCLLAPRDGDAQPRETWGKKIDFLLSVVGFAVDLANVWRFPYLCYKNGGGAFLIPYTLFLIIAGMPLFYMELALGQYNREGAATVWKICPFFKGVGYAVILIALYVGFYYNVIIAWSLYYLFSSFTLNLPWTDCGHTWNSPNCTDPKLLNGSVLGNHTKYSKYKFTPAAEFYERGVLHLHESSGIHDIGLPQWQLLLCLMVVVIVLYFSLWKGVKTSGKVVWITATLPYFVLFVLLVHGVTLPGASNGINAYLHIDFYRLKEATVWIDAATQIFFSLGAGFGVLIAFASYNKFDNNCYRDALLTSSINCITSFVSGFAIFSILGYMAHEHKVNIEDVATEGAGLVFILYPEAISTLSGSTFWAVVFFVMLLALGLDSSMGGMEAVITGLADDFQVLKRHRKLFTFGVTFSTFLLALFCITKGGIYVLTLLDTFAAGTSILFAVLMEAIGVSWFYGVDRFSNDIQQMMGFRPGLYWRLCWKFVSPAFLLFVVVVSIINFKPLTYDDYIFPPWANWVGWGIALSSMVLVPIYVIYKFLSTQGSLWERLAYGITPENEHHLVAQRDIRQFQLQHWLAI
Interleukine-6, sequence (P08887 20-468): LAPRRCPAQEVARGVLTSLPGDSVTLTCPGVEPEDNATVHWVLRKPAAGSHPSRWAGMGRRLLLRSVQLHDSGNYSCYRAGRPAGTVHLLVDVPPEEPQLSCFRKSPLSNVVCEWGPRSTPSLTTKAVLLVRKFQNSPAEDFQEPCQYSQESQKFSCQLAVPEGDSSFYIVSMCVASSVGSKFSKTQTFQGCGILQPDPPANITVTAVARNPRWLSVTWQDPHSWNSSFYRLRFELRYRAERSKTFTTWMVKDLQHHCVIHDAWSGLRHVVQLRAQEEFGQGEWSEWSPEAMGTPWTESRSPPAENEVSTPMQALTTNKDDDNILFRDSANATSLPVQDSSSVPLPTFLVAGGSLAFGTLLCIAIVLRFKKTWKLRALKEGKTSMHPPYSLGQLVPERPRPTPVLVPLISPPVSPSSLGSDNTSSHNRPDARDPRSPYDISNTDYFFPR
Muscarine-M1, sequence (P11229 whole entry): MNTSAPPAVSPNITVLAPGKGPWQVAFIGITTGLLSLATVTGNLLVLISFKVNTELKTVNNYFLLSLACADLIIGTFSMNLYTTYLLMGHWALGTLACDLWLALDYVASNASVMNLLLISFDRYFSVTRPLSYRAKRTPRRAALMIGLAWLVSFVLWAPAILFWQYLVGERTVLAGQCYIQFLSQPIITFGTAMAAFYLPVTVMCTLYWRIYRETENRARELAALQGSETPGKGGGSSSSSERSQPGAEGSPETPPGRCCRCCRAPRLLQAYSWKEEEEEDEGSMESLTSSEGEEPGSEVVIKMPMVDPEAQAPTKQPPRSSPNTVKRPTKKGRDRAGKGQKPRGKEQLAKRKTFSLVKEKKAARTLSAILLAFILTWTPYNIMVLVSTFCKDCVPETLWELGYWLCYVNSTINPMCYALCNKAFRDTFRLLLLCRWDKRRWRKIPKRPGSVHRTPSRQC
angiotensin-AT2, sequence (P50052 whole entry): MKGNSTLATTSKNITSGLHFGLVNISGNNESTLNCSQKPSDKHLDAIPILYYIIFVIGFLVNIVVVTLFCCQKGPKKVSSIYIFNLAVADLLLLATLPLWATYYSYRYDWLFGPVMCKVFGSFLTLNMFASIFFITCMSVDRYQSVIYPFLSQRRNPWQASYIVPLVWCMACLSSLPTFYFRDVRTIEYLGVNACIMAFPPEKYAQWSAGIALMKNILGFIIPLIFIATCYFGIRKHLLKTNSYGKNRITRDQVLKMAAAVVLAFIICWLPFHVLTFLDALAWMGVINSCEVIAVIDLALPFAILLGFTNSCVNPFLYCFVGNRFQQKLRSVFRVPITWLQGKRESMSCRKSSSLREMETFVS

As for `Nc1cc2cccc(N3CCNCC3)c2oc1=O` [Compound 1, 3-amino-8-(1-piperazinyl)-2H-1-benzopyran-2-one], the Ki on sigma-SG2, at Muscarine-M1, at α1B-adrenergic, at Neurokinin-NK2, on NAreuptake and at Neurotensin-NT1 was above 1000 nM in each case. Also, the Ki at α1A-adrenergic was 630 nM; on Adenosine-A3 it was above 1000 nM; on Interleukine-6, above 10000 nM; at Endothelin-ETA, above 1000 nM; at Vasopressine-V1A, above 1000 nM; at 5-HT6 it was above 1000 nM. Moreover, the Ki on 5-HT2C, at κ-opiate and at angiotensin-AT2 was above 1000 nM in each case. The “Mean number of turns (rotations contralateral to the direction of a 6-OHDA lesion)” value in [1] (0.3 mg/kg p.o.) is 20.925; in [1] (0.5 mg/kg p.o.) it was 22.988; in assay [1] (0.75 mg/kg p.o.), 106.35*; in assay [1] (1.0 mg/kg p.o.) it was 77.1*. Moreover, the “minimal effective dose, contralateral rotation” value in assay [1] (p.o.) was 0.75 mg/kg.
